Measurements published in US6565890B2, “Antiviral drugs containing heteropolyanions” (priority 2001, dated 2003).

Columns and labels:
Format in all cases: cell-based
[1] = in vitro; settings: for respective culture cells; read-out: toxicity CC50
[2] = system: MT-4 and Hela CD4 cells; experiment: Cytotoxicity in the anti-HIV test, MTT colorimetric method; settings: MT-4 cells or Hela CD4 cells; in words
Procedure: The tissue culture cells were MT-4 and Hela CD4. The HIV was prepared from the supernatant solutions of the culture fluids of HIV-producing MT-4 and HIV cells, or Hela CD4 and HIV cells. The media were 10% fetal calf serum, and for culturing, 0.2 ml of MT-4 cells or Hela CD4 cells and 0.2 ml of HIV cells were placed in each well of a 24-well culture tray. After virus adsorption (the virus infectivity titer was 100-CCID50 per about 10^5 cells), each drug such as PM-1001 diluted in a medium was added, to make a total amount of 1.0 ml, and the mixture was cultured at 37° C. for 4 to 6 days. As controls, cells not infected with HIV and cells untreated with any drug such as PM-1001 were used. […] In the MTT colorimetry, the absorbance is measured by means of a colorimeter using a wavelength of 540 nm, to obtain the vital cell number proportional to the absorbance. If all the cells are dead due to virus infection, the absorbance becomes almost zero.
(§1) With the concentration of each drug such as PM-1001 as a parameter, the cell growth rate was examined. […] That is, the drug concentration capable of improving the absorbance of […] up to 50% (to prevent cytocidal cell degeneration) is obtained and expressed in micromoles (μM). […] ND stands for “not determined”.

[3] = system: HIV (human immunodeficiency virus); experiment: Inhibition of HIV cytopathic effect, MTT colorimetric method; settings: HIV produced with either MT-4 cells or Hela CD4 cells; in words, figures only in FIG. 2
Procedure: The antiviral effect against HIV (human immunodeficiency virus) and cytotoxicity of the PM-1001 and PM-1002 of this invention synthesized as described above were examined in comparison with those of K6[C0W12O40]. (called PM-1003), i.e., a heteropolyoxotungstate salt having perfect Keggin structure and conventional dextran sulfate (DS5000) and azidothymidine (AZT) respectively utilized because of their excellent anti-HIV effect. The inhibition of cell growth of HIV was measured according to the MTT colorimetric method.
The tissue culture cells were MT-4 and Hela CD4. The HIV was prepared from the supernatant solutions of the culture fluids of HIV-producing MT-4 and HIV cells, or Hela CD4 and HIV cells. […] In the MTT colorimetry, the absorbance is measured by means of a colorimeter using a wavelength of 540 nm, to obtain the vital cell number proportional to the absorbance. If all the cells are dead due to virus infection, the absorbance becomes almost zero.
as §1

[4] = system: DFV, FluV-A, RSV, PfluV, CDV, HIV; experiment: Spectrum of antiviral activity (FIG. 3), MTT colorimetric method; settings: all viruses of FIG. 3; in words

| Compound | CC50 [1] | adverse effects (cytotoxicity) [2] | potent efficacy against HIV [3] | antiviral effects (FIG. 3, EC50 comparison) [4] |
| --- | --- | --- | --- | --- |
| NC(=O)c1ncn([C@@H]2O[C@H](CO)[C@@H](O)[C@H]2O)n1 [ribavirin] | > 100 µM |  |  |  |
| K6H4[(SbW9O33)2V3O3].29.5H2O [PM-1001] |  | low adverse effects | very high potent efficacies | remarkably excellent antiviral effects |
| K6H6[(SbW9O33)2V3O3].29.5H2O [PM-1002] |  | low adverse effects | very high potent efficacies | remarkably excellent antiviral effects |
